Assay results from PMC8645336, “Benchmarking a highly selective USP30 inhibitor for enhancement of mitophagy and pexophagy” (Life Science Alliance, 2021).

Experiments:
Experiment in all cases: biochemical
Design in all cases: Ubiquigent DUB profiler selectivity panel, remaining enzyme activity as % of control
Conditions in all cases: read-out: % of control remaining
[1] = biological target: T1, OTU1 (Homo sapiens, UniProt Q5VVQ6)
T1 construct: gene YOD1
T1 sequence (Q5VVQ6 1-348): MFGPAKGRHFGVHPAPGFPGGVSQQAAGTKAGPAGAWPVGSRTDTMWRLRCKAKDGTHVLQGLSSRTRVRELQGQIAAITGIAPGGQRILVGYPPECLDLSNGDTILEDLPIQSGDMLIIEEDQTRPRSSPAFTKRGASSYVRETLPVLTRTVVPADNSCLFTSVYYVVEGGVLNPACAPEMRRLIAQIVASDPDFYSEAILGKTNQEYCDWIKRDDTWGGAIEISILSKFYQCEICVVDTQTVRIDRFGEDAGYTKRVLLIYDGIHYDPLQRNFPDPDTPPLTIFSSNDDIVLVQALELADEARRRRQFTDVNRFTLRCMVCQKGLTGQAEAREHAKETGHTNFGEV
Summary of the method: (§1)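 In YFP-PRKN-overexpressing hTERT-RPE1 cells, 1 h antimycin A plus oligomycin A (1 μM each) with CMPD-39, then Western blot of TOMM20 ubiquitylation. Target engagement: 2 h compound, then 10 min HA-Ub-PA at 37°C, read as USP30 shift. DUB panel (>40 enzymes) screened at 1-100 μM.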

[2] = biological target: T2, USP5 (Homo sapiens, UniProt P45974)
T2 sequence (P45974 1-858): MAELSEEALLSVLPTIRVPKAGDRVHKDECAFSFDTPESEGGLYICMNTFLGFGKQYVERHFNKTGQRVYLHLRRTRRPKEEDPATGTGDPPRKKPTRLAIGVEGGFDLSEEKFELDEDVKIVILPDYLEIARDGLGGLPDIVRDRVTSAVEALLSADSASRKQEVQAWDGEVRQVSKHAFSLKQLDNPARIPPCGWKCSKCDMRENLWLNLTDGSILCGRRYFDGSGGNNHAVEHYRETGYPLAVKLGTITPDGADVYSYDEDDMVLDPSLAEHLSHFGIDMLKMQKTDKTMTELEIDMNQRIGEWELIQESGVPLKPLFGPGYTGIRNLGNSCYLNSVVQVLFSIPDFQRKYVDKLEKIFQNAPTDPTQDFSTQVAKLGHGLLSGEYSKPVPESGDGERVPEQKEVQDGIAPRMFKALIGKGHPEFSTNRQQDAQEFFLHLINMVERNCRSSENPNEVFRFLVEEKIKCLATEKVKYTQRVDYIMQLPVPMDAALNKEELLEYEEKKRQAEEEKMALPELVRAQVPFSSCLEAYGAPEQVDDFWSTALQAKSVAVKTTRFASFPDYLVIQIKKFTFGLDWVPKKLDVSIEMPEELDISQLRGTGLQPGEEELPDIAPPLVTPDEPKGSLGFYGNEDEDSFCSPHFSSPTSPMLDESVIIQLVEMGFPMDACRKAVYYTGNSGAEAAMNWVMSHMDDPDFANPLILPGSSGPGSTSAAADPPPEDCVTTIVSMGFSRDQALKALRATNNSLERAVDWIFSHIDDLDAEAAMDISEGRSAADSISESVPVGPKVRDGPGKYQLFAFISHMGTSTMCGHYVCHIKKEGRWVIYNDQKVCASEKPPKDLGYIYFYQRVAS
Summary of the method: as §1

[3] = biological target: T3, Ataxin3 (Homo sapiens, UniProt P54252)
T3 construct: gene ATXN3
Summary of the method: as §1

[4] = biological target: USP7 (Homo sapiens, UniProt Q93009)
Summary of the method: as §1

[5] = biological target: JOSD1 (Homo sapiens, UniProt Q15040)
Summary of the method: as §1

T3 sequence (P54252 whole entry): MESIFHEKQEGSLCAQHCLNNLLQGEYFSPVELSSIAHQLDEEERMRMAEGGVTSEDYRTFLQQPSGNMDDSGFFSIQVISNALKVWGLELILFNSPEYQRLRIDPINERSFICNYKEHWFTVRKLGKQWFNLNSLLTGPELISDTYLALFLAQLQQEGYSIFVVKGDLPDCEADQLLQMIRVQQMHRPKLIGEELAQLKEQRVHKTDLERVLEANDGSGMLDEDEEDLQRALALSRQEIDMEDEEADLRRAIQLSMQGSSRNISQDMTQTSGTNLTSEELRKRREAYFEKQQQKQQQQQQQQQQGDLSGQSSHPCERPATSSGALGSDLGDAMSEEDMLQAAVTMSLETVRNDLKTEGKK
Sequence of USP7 (Q93009 whole entry): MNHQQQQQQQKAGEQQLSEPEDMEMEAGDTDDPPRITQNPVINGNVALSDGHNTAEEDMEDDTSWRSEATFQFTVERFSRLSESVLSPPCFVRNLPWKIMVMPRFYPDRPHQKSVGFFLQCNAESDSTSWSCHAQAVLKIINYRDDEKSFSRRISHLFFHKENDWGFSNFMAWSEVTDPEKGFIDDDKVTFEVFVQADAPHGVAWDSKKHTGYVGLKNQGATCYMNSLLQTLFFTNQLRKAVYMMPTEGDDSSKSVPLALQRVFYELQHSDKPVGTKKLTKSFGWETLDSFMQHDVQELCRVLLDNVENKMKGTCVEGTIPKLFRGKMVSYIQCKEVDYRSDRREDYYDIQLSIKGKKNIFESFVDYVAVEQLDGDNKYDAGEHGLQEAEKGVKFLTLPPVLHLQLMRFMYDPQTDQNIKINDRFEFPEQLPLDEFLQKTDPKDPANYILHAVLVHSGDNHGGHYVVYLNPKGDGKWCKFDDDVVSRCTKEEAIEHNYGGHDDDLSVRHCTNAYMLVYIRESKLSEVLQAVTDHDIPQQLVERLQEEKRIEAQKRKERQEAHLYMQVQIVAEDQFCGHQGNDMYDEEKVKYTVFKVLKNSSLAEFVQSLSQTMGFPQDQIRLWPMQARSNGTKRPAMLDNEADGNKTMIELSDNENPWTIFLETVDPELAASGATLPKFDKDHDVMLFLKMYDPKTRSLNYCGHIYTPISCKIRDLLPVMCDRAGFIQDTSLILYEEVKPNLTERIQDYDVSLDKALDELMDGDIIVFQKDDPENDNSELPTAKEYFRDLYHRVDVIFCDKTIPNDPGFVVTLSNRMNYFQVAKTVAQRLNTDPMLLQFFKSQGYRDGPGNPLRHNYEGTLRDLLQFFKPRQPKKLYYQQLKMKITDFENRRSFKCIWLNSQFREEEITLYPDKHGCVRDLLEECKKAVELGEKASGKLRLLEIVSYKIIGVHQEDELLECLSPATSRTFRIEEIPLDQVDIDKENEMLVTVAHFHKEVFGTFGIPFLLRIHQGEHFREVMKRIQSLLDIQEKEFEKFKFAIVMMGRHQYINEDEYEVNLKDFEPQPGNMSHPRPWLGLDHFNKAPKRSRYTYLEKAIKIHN

remaining activity at 1 µM [1]: 105%
remaining activity at 10 µM [1]: 97.8%
remaining activity at 100 µM [1]: 101%
remaining activity at 1 µM [2]: 104%
remaining activity at 10 µM [2]: 101%
remaining activity at 100 µM [2]: 106%
remaining activity at 1 µM [4]: 106%
remaining activity at 10 µM [4]: 98.4%
remaining activity at 100 µM [4]: 94.1%
remaining activity at 1 µM [5]: 98.1%
remaining activity at 10 µM [5]: 99.6%
remaining activity at 100 µM [5]: 103%
Structure (SMILES): CC(C)(C)NS(=O)(=O)c1ccc(NC(=O)[C@H](Cc2ccccc2)NC(=O)c2ccc(F)cc2)cc1 [compound 39, CMPD-39]
remaining activity at 1 µM [3]: 102%
remaining activity at 10 µM [3]: 102%
remaining activity at 100 µM [3]: 101%
